Columns and labels:
Format in all cases: in vivo
Tetranychus urticae = test: Red spider mite damage on tomato plants, natural infestation in greenhouse; conditions: 4 mM Phe solution, drench or spray, each treatment; AUDPC during 30 days; FIG. 9
Procedure: FIG. 9 is a bar graph showing the effect of 4 mM Phe solution on the severity of Tetranychus urticae red spider mite on leaves of tomato plants. The Phe solution was applied by spraying and by drench on the tomato plants at 3 days before and 4 hours before incubation in the greenhouse. Symptoms severity was evaluated on a scale of 0-100% severity of symptoms coverage during 30 days after treatment and it is expressed as the area under disease progress curve (AUDPC).
The red spider mite Tetranychus urticae Koch, (also two-spotted spider mite) occurred naturally on the treated tomato plants. The plants were kept in a greenhouse with 18-28° C. Typical scratching symptoms severity were evaluated on each plant; 0=no infection (all leaves are symptomless) and 100=leaves were fully covered by symptoms.

Bemisia tabaci = test: Silver leaf whitefly incidence on tomato leaves; conditions: 4 mM Phe solution, drench or spray, each treatment; 30 days after treatment; FIG. 10
Procedure: FIG. 10 is a bar graph showing the effect of 4 mM Phe solution on the severity of silver leaf white fly (SLWF) on tomato plants. The Phe solution was applied by spraying and by drench on the tomato plants at 3 days before and 4 hours before incubation in the greenhouse. Incidence of SLWF was evaluated on a representative leaf 30 days after treatment.
The insect silver leaf whitefly Bemisia tabaci Gennadius (commonly also sweet potato whitefly) occurred naturally on the treated tomato plants. The plants were kept in a greenhouse with 18-28° C. Incidence of insect individuals' number on the 10th leaf of the tomato plants was counted.

Oidiopsis sicula = test: Oidiopsis powdery mildew on tomato plants; conditions: 4 mM Phe solution, drench or spray, each treatment; 24 days after treatment; FIG. 12
Procedure: FIG. 12 is a bar graph showing the effect of 4 mM Phe solution on the severity of Oidiopsis sicula powdery mildew on tomato plants. The Phe solution was applied by spraying and by drench on the tomato plants at 3 days before and 4 hours before incubation in the greenhouse Incidence of Oidiopsis powdery mildew was evaluated 24 days after treatment.
Conidia of Oidiopsis sicula were collected from leaves of a diseased plant, suspended in water and sprayed on the tomato plants. The plants were kept in a greenhouse with 18-28° C. Disease severity of Oidiopsis powdery mildew was evaluated on a scale of 0-100% where 100=all leaves covered by disease symptoms.

Botrytis cinerea = test: Tomato gray mold severity on leaves of tomato plants
Procedure: Plants of tomato (Solanum esculentum) and cucumber (Cucumis sativus) were grown from seeds in a nursery and transplanted into 1-liter pots at 40 to 50 days after seeding in an unheated greenhouse. Plants were fertilized proportionally with drippers 2-3 times per day with 5:3:8 NPK fertilizer (irrigation water was planned to have total N, P and K concentrations of 120, 30 and 150 mg/L, respectively; EC 2.2 dS/m), allowing for 25-50% drainage. Plants were maintained at 20 to 30° C. with natural light, and relative humidity of 50-90% in a pest- and disease-free greenhouse during the growth period and then transferred to an area where diseases were allowed to develop following pathogen infection on intact leaves as described below.
Treatments in experiments were replicated 5-10 times. Replicates of each treatment were arranged randomly. Disease severity data in percentages were arcsin-transformed before further analysis. Disease severity data were analyzed using ANOVA and Fisher's protected LSD test. Standard errors (SE) of the means were calculated and disease levels were statistically separated (P≤0.05) following a one-way analysis of variance. A control experiment presents the severity of the disease with application of only water without the Phe.
Gray mold inducing pathogen Botrytis cinerea [Pers.:Fr. [Teleomorph: Botryotinia fuckeliana (de Bary) Whetzel] (isolate BcI16; [Swartzberg D. et al., Eur. J. Plant Pathol., 2008, 120:289-297])] was cultured on potato dextrose agar (PDA, Difco, Detroit, Mich.) in 90 mm diam. petri dishes containing 15 ml PDA each and incubated at 20° C. The inoculum was maintained on PDA and transferred every two weeks. Gray mold conidia were harvested from 10 to 14-day-old cultures by agitating 1 cm^2 of agar bearing mycelium and conidia in a glass tube with tap water. The suspension was then filtered through cheesecloth. The concentration of conidia was determined using a hemocytometer and a light microscope, and adjusted to 5×10^5 conidia/ml. Since B. cinerea conidia need carbon and phosphate for germination and penetration, 0.1% glucose was added to the final conidial suspension together with 0.1% KH2PO4. […] Plant attached tomato leaves were examined. Whole plants were kept in a humidity chamber at 20±1° C., 97±3% RH, and 1,020 lux light intensity. Plants were infected by spraying the whole plant with 2 ml of a 5×10^5 conidia/ml suspension or were infected after wounding with a needle and dropping 10 μL drops of conidia suspension prepared as mentioned above. Disease severity was evaluated on each plant using a pictorial key; 0=no infection (all leaves are symptomless) and 100=all leaves are fully covered by gray mold symptoms.

Colletotrichum = test: Spots and pitting of infected mango fruits under 7° C.; conditions: post-harvest treated and infested mango
Procedure: (§1) FIGS. 19A-19G are images and graphs showing the effect of Phe solution on fruit post-harvest rotting under cold temperature resistance. (19A-19B) are images showing post-harvest control and treated mango fruits, respectively, stored in 7° C. […] (19C-19D) are vertical bar graphs showing indices of spots (19C) and pitting (19D) of mango fruits infected by Colletotrichum or Lasiodiplodia under 7° C. (19E-19G) are vertical bar graph showing […] decay was shown at 7° C., and side decay and total decay were shown at 7° C. and 10° C.
(§2) Mango fruits were treated with Phe solution post-harvest. Fruits were stored in either 7° C. or 10° C., and decay was inspected and documented. Post-harvest treatment as described hereinabove reduced stem decay, side decay, and total decay (FIGS. 19E-19G). […] Fruits were both treated with AAA and infested with […] post-harvest. […] (FIGS. 19C-19D).

Lasiodiplodia = test: as above; conditions: post-harvest treated and infested mango
Procedure: as §1, §2

In the case of N[C@@H](Cc1ccccc1)C(=O)O [Phe, Phenylalanine], the “Severity of damage of the Tetranychus urticae red spider mite on tomato leaves” value (Tetranychus urticae) is reported as “significantly suppressed”, the “Incidence of the Bemisia tabaci silver leaf whitefly on tomato leaves” value (Bemisia tabaci) is reported as “significantly suppressed” and the “Severity of Oidiopsis powdery mildew on tomato leaves” value (Oidiopsis sicula) is reported as “significantly suppressed”. The “Disease control effect on severity of tomato gray mold” value (from here on “Disease control effect on severity”) (Botrytis cinerea; 4 mM vs 2 mM Phe, drench to the root zone, FIG. 14) was “significantly better disease control effect than 2 mM”, the “Disease control effect on severity” value (Botrytis cinerea; 4 mM vs 2 mM Phe, sprayed or drenched, wound infection, 1-4 mM series, FIG. 16) was “significantly better disease control effect than 2 mM” and the “Disease control effect on severity” value (Botrytis cinerea; 4 mM vs 2 mM Phe, sprayed or drenched, wound infection, 2-4 mM series, FIG. 17) was “significantly better disease control effect than 2 mM”. For the same compound, the “Disease control effect on severity” value (Botrytis cinerea; 4 and 8 mM vs 2 mM Phe, sprayed, FIG. 15) was “significantly better disease control effect than 2 mM”, the “Levels of black spots” value (Colletotrichum; FIG. 19C) was “substantially reduced levels” and the Levels of pitting (Colletotrichum; FIG. 19D) was “substantially reduced levels”. For the same compound, the “Levels of black spots” value (Lasiodiplodia; FIG. 19C) was “substantially reduced levels” and the Levels of pitting (Lasiodiplodia; FIG. 19D) was “substantially reduced levels”.

— patent US20200383327A1, “METHOD OF IMPROVING PLANT PERFORMANCE” (The State of Israel, Ministry of Agriculture & Rural …, priority 2018, published 2020)
